In the supplement of paper PMC10307832:

How the values were obtained:
Experiment in all cases: relative viability (nuclei count vs DMSO), 5 days (fraction); higher = more cells survive
[1] = compound: Cn1cc(-c2cnc3ccc4ccc(CS(=O)(=O)NCc5ccccn5)cc4c(=O)c3c2)cn1 [MK-8033] + O=C(c1cc(Cc2n[nH]c(=O)c3ccccc23)ccc1F)N1CCN(C(=O)C2CC2)CC1 [Olaparib] (partner 8 µM)
Method in brief: (§1)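 Cells from lung cancer lines were seeded into 1536-well plates and, one day later, dosed by pin tool. Treatments were either a single drug or a fixed dose of an anchor drug with five library-drug doses (not always all listed) in √10 steps. After 5 days, nuclei were stained in a one-step fixation (final 0.05% Triton X-100, 1% formaldehyde, 1 ug/ml Hoechst) and counted on 4× images, and relative viability is the treated-to-vehicle nuclei ratio, as the median of duplicate plates.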

[2] = compound: CC[C@@H](C)CNCC(=O)N1CCC2=C([C@@H]1COC3=CC=CC(=C3)C)C=CS2 [RU-SKI 43] + Nc1nc2[nH]cc(CCc3ccc(C(=O)N[C@@H](CCC(=O)O)C(=O)O)cc3)c2c(=O)[nH]1 [Pemetrexed] (partner 0.2 µM)
Method in brief: as §1

[3] = compound: CC[C@@H](C)CNCC(=O)N1CCC2=C([C@@H]1COC3=CC=CC(=C3)C)C=CS2 [RU-SKI 43] + O=C(CCCCCCC(=O)Nc1ccccc1)NO [Vorinostat] (partner 1 µM)
Method in brief: as §1

[4] = compound: Cn1cc(-c2cnc3ccc4ccc(CS(=O)(=O)NCc5ccccn5)cc4c(=O)c3c2)cn1 [MK-8033] + Cc1cc(Nc2cc(N3CCN(C)CC3)nc(Sc3ccc(NC(=O)C4CC4)cc3)n2)n[nH]1 [Tozasertib] (partner 0.1 µM)
Method in brief: as §1

| Cell Line | relative viability ([1]; first compound 0.02 µM) | relative viability ([1]; first compound 0.06325 µM) | relative viability ([1]; first compound 0.2 µM) | relative viability ([1]; first compound 0.6325 µM) | relative viability ([1]; first compound 2 µM) | relative viability ([2]; first compound 0.1 µM) | relative viability ([2]; first compound 0.3162 µM) | relative viability ([2]; first compound 1 µM) | relative viability ([2]; first compound 3.162 µM) | relative viability ([2]; first compound 10 µM) | relative viability ([3]; first compound 0.1 µM) | relative viability ([3]; first compound 0.3162 µM) | relative viability ([3]; first compound 1 µM) | relative viability ([3]; first compound 3.162 µM) | relative viability ([3]; first compound 10 µM) | relative viability ([4]; first compound 0.02 µM) | relative viability ([4]; first compound 0.06325 µM) | relative viability ([4]; first compound 0.2 µM) | relative viability ([4]; first compound 0.6325 µM) | relative viability ([4]; first compound 2 µM) |
| --- | --- | --- | --- | --- | --- | --- | --- | --- | --- | --- | --- | --- | --- | --- | --- | --- | --- | --- | --- | --- |
| SW 900 | 0.851 | 0.876 | 0.852 | 0.788 | 0.812 | 0.484 | 0.494 | 0.498 | 0.478 | 0.461 | 0.36 | 0.584 | 0.782 | 0.621 | 0.221 | 0.583 | 0.645 | 0.51 | 0.615 | 0.341 |
| NCI-H1623 | – | – | – | – | – | – | – | – | – | – | – | – | – | – | – | 0.396 | 0.358 | 0.428 | 0.43 | 0.498 |
| NCI-H647 | 0.7 | 0.476 | 0.479 | 0.661 | 0.515 | 0.169 | 0.178 | 0.199 | 0.169 | 0.169 | 0.543 | 0.948 | 0.573 | 0.731 | 0.527 | 0.276 | 0.212 | 0.258 | 0.0983 | 0.282 |
| NCI-H520 | 0.306 | 0.326 | 0.357 | 0.307 | 0.315 | 0.651 | 0.801 | 0.831 | 0.858 | 0.636 | 0.77 | 0.745 | 0.788 | 0.704 | 0.646 | 0.408 | 0.453 | 0.433 | 0.485 | 0.469 |
| IA-LM | 0.749 | 0.764 | 0.786 | 0.756 | 0.767 | – | – | – | – | – | 0.795 | 0.993 | 0.964 | 0.978 | 0.977 | – | – | – | – | – |
| LC-2-ad | 0.701 | 0.678 | 0.673 | 0.702 | 0.727 | 0.262 | 0.25 | 0.31 | 0.258 | 0.247 | 0.739 | 0.738 | 0.697 | 0.693 | 0.633 | 0.441 | 0.385 | – | 0.512 | 0.409 |
| EKVX | 0.85 | 0.842 | 0.825 | 0.763 | 0.859 | 0.419 | 0.344 | 0.417 | 0.407 | 0.393 | 0.658 | 0.614 | 0.707 | 0.643 | 0.632 | 0.482 | 0.262 | 0.466 | 0.288 | 0.313 |
| NCI-H2228 | 0.79 | 0.568 | 0.52 | 0.865 | 0.619 | 0.288 | 0.353 | 0.302 | 0.376 | 0.299 | 0.603 | 0.928 | 0.828 | 0.727 | 0.596 | 0.199 | 0.214 | 0.168 | 0.253 | 0.214 |
| NCI-H596 | 0.698 | 0.613 | 0.616 | 0.7 | 0.737 | 0.537 | 0.473 | 0.552 | 0.507 | 0.508 | 0.853 | 0.534 | 0.669 | 0.589 | 0.501 | 0.802 | 0.898 | 0.859 | 0.944 | 0.853 |
